Earlier results, collected in patent US20060183185A1, “Method for the synthesis of astaxanthin” (priority 2004, published 2006).

Conditions: liposome systems; appropriate dose

Structure (SMILES): CC1=C(/C=C/C(C)=C/C=C/C(C)=C/C=C/C=C(C)/C=C/C=C(C)/C=C/C2=C(C)C(=O)C(O)CC2(C)C)C(C)(C)CC(O)C1=O (stereo not shown) [astaxanthin]
- suppression of the peroxyl radical chain reaction: completely suppress
